Test results taken from US10323283B2, “Editing profiling of PDE8A pre-mRNA: use as specific biomarker of ADARs activities in human tissues to diagnose and to predict and assess therapeutic efficacy and/or efficiency or potential drug side effects” (ALCEDIAG, priority 2010, dated 2019).

How the values were obtained:
Assay type in all cases: cell-based, human
[1] = tested on: ADAR1a-p150; assay: Quantification of ADAR1a-p150 mRNA expression by real-time PCR in SH-SY5Y cells; settings: IFNα application during 24 hours
Experimental: (§1) The SH-SY5Y Human neuroblastoma cell line was purchased from ECACC (ref 94030304, lot number 06H021). Cells were cultured in high glucose D-MEM medium (Sigma, ref D6546) supplemented with 10% dialysed FCS (PAA, ref A15-507, lot number A50708-0050), 2 mM Glutamine (Sigma, G7513) and a 1× mix of Antibiotic-Antimycotic Stabilized (Sigma, ref A5955) at 37° C. under a humidified atmosphere of 5% CO2. The day preceding hIFNα treatment, SH-SY5Y cells were plated in 8 different 6-well plates at a density of 7.10^5 cells/well. […]
In order to quantify levels of ADAR1a mRNA expression in SH-SY5Y cells first-strand cDNA was synthesized by reverse transcription (as described above) and subjected to TaqMan quantitative Real-Time PCR analysis (Applied Biosystems,). The probe and primers used for the quantitative PCRs were from Applied Biosystems (Gene Expression Assays, Assay-On-Demand): • -ADAR1a: ref Hs 01020780_ml
Human GAPDH (product no. 4326317E; Applied Biosystems) was included in each multiplex PCR as an internal control. […] Quantitation of target gene expression in all samples was normalized to GAPDH expression by the equation Ct (target)−Ct (GAPDH)=ΔCt, where Ct is the threshold cycle number. The mean ΔCt value of samples from untreated cells was determined and used as a reference point for the samples corresponding to IFNα treated cells. […]

[2] = tested on: PDE8A pre-mRNA; assay: PDE8A pre-mRNA editing profile by nested RT-PCR and CE-SSCP in SH-SY5Y cells; settings: increased concentrations of IFNα, 48 hours
Experimental: The SH-SY5Y Human neuroblastoma cell line was purchased from ECACC (ref 94030304, lot number 06H021). Cells were cultured in high glucose D-MEM medium (Sigma, ref D6546) supplemented with 10% dialysed FCS (PAA, ref A15-507, lot number A50708-0050), 2 mM Glutamine (Sigma, G7513) and a 1× mix of Antibiotic-Antimycotic Stabilized (Sigma, ref A5955) at 37° C. under a humidified atmosphere of 5% CO2. The day preceding hIFNα treatment, SH-SY5Y cells were plated in 8 different 6-well plates at a density of 7.10^5 cells/well. On the next day, culture medium was removed and cells were incubated for 48 hours with hIFNα at the correct concentration (PBL biomedical laboratories, ref 111001-1, lot number 3734). On the day of the experiment, the hIFNα stock solution (10^5 I.U/ml in sterile 1×D-PBS stocked at −80° C.) was thawed on ice and then extemporaneously diluted in D-MEM supplemented with FCS and Antibiotic-Antimycotic, at the final concentrations of […]. In each well, cells were treated with 2 ml of the working solution. Aliquots of the stock-solution were used only once. […]
Human total blood RNA was extracted with the PAXgene Blood RNA kit 50 (PreAnalytiX, ref 762174) according to manufacturer's instructions. […] Aliquots (5 μl) of the amplification products were used to check the quantity and the quality of amplicons on a 2% agarose analytic gel. […]

[3] = tested on: PDE8A4 isoform of the protein; assay: Western blot analysis of PDE8A protein concentrations in SH-SY5Y cells after IFNα; settings: IFNα application during 24 hours
Experimental: as §1
After culture medium elimination, SH-SY5Y cells were washed two times with a phosphate buffer solution (PBS, Gibco Invitrogen Corporation), scraped and solubilized for 2 hr at 4° C. in solubilization buffer containing 150 mM NaCl, 5 mM EDTA, 1% Triton X-100, 0.1% sodium deoxycholate, 10 mM Tris-HCl [pH 8.0] and supplemented with protease inhibitors (1 mM phenylmethylsulfonyl fluoride, and one tablet of Complete™ mini protease inhibitors cocktail [Roche]). […] Proteins present in the supernatant (clear lysate) were quantified with a Qubit Fluorometer (Invitrogen, Q32857) and the Quant-IT Protein assay (Invitrogen, ref Q33211). […]

estimated EC 50% of the effect on PDE8A4 isoform concentration versus concentrations of IFNα ([3]; western blot, ±SD, R^2 of the fit=0.7): 3.3±4.4 IU/ml
Substance: interferon alpha [IFNα]
RQ versus GAPDH of the ADAR1a-p150 [1]: induced
proportions of isoform B in the editing profile of PDE8A RNA [2]: relative increase
maximal effect on PDE8A4 isoform, % of the steady state concentration found in controls ([3]; from best fit): −47%
